biological target: T1, JAK2 (JH1domain-catalytic, Y1007F,Y1008F) kinase (Homo sapiens, UniProt O60674, Y1007F/Y1008F); assay: JAK2 JH1 Domain Binding Assay; conditions: qPCR readout
T1 construct: JAK2 (JH1domain-catalytic, Y1007F,Y1008F) kinase was expressed as N-terminal fusion; made in house; host or cells: transiently transfected HEK293 cells
T1 sequence (O60674 849-1124 Y1007F/Y1008F limits assumed): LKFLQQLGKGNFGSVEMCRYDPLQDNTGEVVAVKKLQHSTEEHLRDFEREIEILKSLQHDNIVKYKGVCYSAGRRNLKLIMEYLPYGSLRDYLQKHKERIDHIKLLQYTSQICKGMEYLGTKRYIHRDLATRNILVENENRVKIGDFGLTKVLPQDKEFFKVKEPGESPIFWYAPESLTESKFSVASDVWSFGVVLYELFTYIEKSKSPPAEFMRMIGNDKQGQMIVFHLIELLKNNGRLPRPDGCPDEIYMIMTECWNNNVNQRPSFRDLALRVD

Q: For `Cn1c(Nc2cc(C(C)(C)C)n([C@@H]3CCOC3)n2)nc2ncc(Oc3cnc4[nH]c(C5CC5)cc4c3)cc21` [Example I-1, (R)—N-(5-(tert-butyl)-1-(tetrahydrofuran-3-yl)-1H-pyrazol-3-yl)-6-((2-cyclopropyl-1H-pyrrolo[2,3-b]pyridin-5-yl)oxy)-1-methyl-1H-imidazo[4,5-b]pyridin-2-amine], which Kd is on record?
A: 10 to 50 nM

Q: For `COc1c(Oc2cnn3ccccc23)cnc2nc(Nc3cc(C4CC4)cn([C@H]4C[C@@H](O)C4)c3=O)n(C)c12` [Example I-112, cis-5-cyclopropyl-1-(3-hydroxycyclobutyl)-3-((7-methoxy-1-methyl-6-(pyrazolo[1,5-a]pyridin-3-yloxy)-1H-imidazo[4,5-b]pyridin-2-yl)amino)pyridin-2(1H)-one], which Kd is on record?
A: < 10 nM

Q: With `COc1n[nH]c2ncc(Oc3cnc4nc(Nc5cc(C(F)(F)F)cn(C)c5=O)n(C)c4c3C#N)cc12` [Example I-299, 6-((3-methoxy-1H-pyrazolo[3,4-b]pyridin-5-yl)oxy)-1-methyl-2-((1-methyl-2-oxo-5-(trifluoromethyl)-1,2-dihydropyridin-3-yl)amino)-1H-imidazo[4,5-b]pyridine-7-carbonitrile] as the molecule, how does the Kd read?
A: < 10 nM

Q: For `CNc1nccn2ncc(Oc3cnc4nc(Nc5cc(C(=O)N(C)C)c(F)c(C(F)(F)F)c5)n(C)c4c3Cl)c12` [Example I-226, 5-((7-chloro-1-methyl-6-((4-(methylamino)pyrazolo[1,5-a]pyrazin-3-yl)oxy)-1H-imidazo[4,5-b]pyridin-2-yl)amino)-2-fluoro-N,N-dimethyl-3-(trifluoromethyl)benzamide], which Kd is on record?
A: 10 to 50 nM

Q: With `CN1CC[C@H](n2nc(Nc3nc4ncc(Oc5cnc6sccc6c5)c(Cl)c4n3C)cc2C(C)(C)C)C1` [Example I-19, (S)—N-(5-(tert-butyl)-1-(1-methylpyrrolidin-3-yl)-1H-pyrazol-3-yl)-7-chloro-1-methyl-6-(thieno[2,3-b]pyridin-5-yloxy)-1H-imidazo[4,5-b]pyridin-2-amine] as the molecule, how does the Kd read?
A: 10 to 50 nM

Q: Which Kd does the source give for `Cn1c(Nc2cc(C(C)(C)C)n([C@@H]3CCOC34CC4)n2)nc2ncc(Oc3cnn4ccncc34)c(Cl)c21` (single isomer, unassigned) [Example I-41-a] here?
A: < 10 nM

Q: How did the Kd turn out when `Cc1nc(Nc2nc3ncc(Oc4cnn5ccncc45)c(Cl)c3n2C)nc(C)c1C1CC1` [Example I-231, 7-chloro-N-(5-cyclopropyl-4,6-dimethylpyrimidin-2-yl)-1-methyl-6-(pyrazolo[1,5-a]pyrazin-3-yloxy)-1H-imidazo[4,5-b]pyridin-2-amine] was run?
A: < 10 nM

Q: `COc1c(Oc2cnn3ccncc23)cnc2nc(Nc3cc(C4CC4)cn([C@H]4CC[C@@H]4O)c3=O)n(C)c12` (single isomer, unassigned) [Example I-110-a] was tested. Which Kd did it give?
A: < 10 nM

Q: `COc1c(Oc2cnn3ccncc23)cnc2nc(Nc3cc(C4CC4)cn([C@@H]4CC[C@H]4O)c3=O)n(C)c12` (single isomer, unassigned) [Example I-110-b] was tested. Which Kd did it give?
A: 10 to 50 nM

Q: `Cn1c(Nc2cc(C(C)(C)C)n([C@@H]3CCOC3)n2)nc2ncc(Oc3cnc4[nH]cc(C#N)c4c3)cc21` [Example I-9] was tested. Which Kd did it give?
A: 50 to 1000 nM

Q: `Cn1c(Nc2cc(C(C)(C)C)n([C@@H]3COC[C@H]3O)n2)nc2ncc(Oc3cnn4ccnc4c3)c(Cl)c21` (single isomer, unassigned) [Example I-24] was tested. Which Kd did it give?
A: 50 to 1000 nM

Q: Which Kd does the source give for `Cn1c(Nc2cc(C(C)(C)C)n(C3CC4(COC4)C3)n2)nc2ncc(Oc3cnc4ccnn4c3)c(Cl)c21` [Example I-42, N-(5-(tert-butyl)-1-(2-oxaspiro[3.3]heptan-6-yl)-1H-pyrazol-3-yl)-7-chloro-1-methyl-6-(pyrazolo[1,5-a]pyrimidin-6-yloxy)-1H-imidazo[4,5-b]pyridin-2-amine] here?
A: 10 to 50 nM

Q: Which Kd does the source give for `Cn1c(Nc2cc(C3CC3)cn([C@@H]3CC[C@@H]3O)c2=O)nc2ncc(Oc3cnn4ccccc34)c(Cl)c21` (single isomer, unassigned) [Example I-114-a] here?
A: < 10 nM

Q: Which Kd does the source give for `CN1CC[C@@H](n2nc(Nc3nc4ncc(Oc5cnn6ccncc56)c(Cl)c4n3C)cc2C(C)(C)C)C1` [Example I-32, (R)—N-(5-(tert-butyl)-1-(1-methylpyrrolidin-3-yl)-1H-pyrazol-3-yl)-7-chloro-1-methyl-6-(pyrazolo[1,5-a]pyrazin-3-yloxy)-1H-imidazo[4,5-b]pyridin-2-amine] here?
A: < 10 nM

Q: Which Kd does the source give for `Cn1c(Nc2ccc(CN3CCCC3)c(C(F)(F)F)c2)nc2ncc(Oc3cnn4ccncc34)c(C#N)c21` [Example I-342, 1-methyl-6-(pyrazolo[1,5-a]pyrazin-3-yloxy)-2-((4-(pyrrolidin-1-ylmethyl)-3-(trifluoromethyl)phenyl)amino)-1H-imidazo[4,5-b]pyridine-7-carbonitrile] here?
A: 10 to 50 nM

Q: Which Kd does the source give for `COCCOc1nccn2ncc(Oc3cnc4nc(Nc5cc(C(F)(F)F)n(C6CC7(COC7)C6)n5)n(C)c4c3Cl)c12` [Example I-273, N-(1-(2-oxaspiro[3.3]heptan-6-yl)-5-(trifluoromethyl)-1H-pyrazol-3-yl)-7-chloro-6-((4-(2-methoxyethoxy)pyrazolo[1,5-a]pyrazin-3-yl)oxy)-1-methyl-1H-imidazo[4,5-b]pyridin-2-amine] here?
A: 10 to 50 nM

Q: How did the Kd turn out when `Cn1c(Nc2cc(C(F)(F)F)cn([C@H]3CCCOC3)c2=O)nc2ncc(Oc3cnn4ccncc34)c(Cl)c21` (single isomer, unassigned) [Example I-107-b] was run?
A: < 10 nM

Q: `Cn1cc(C(F)(F)C(F)(F)F)cc(Nc2nc3ncc(Oc4cnn5ccncc45)c(Cl)c3n2C)c1=O` [Example I-144, 3-((7-chloro-1-methyl-6-(pyrazolo[1,5-a]pyrazin-3-yloxy)-1H-imidazo[4,5-b]pyridin-2-yl)amino)-1-methyl-5-(perfluoroethyl)pyridin-2(1H)-one] was tested. Which Kd did it give?
A: < 10 nM

Q: Which Kd does the source give for `Cn1c(Nc2cc(C(C)(C)C)n([C@H]3COC[C@@H]3O)n2)nc2ncc(Oc3cnc4cnc(C5CC5)n4c3)c(Cl)c21` (single isomer, unassigned) [Example I-76-a] here?
A: 10 to 50 nM

Q: With `Cn1cc(-n2cc(C3CC3)cc(Nc3nc4ncc(Oc5cnn6ccccc56)c(Cl)c4n3C)c2=O)cn1` [Example I-115, 3-((7-chloro-1-methyl-6-(pyrazolo[1,5-a]pyridin-3-yloxy)-1H-imidazo[4,5-b]pyridin-2-yl)amino)-5-cyclopropyl-1-(1-methyl-1H-pyrazol-4-yl)pyridin-2(1H)-one] as the molecule, how does the Kd read?
A: < 10 nM

Q: Which Kd does the source give for `CCN1CCN(Cc2ccc(Nc3nc4ncc(Oc5cnn6ccncc56)c(Cl)c4n3C)cc2C(F)(F)F)CC1` [Example I-146, 7-chloro-N-(4-((4-ethylpiperazin-1-yl)methyl)-3-(trifluoromethyl)phenyl)-1-methyl-6-(pyrazolo[1,5-a]pyrazin-3-yloxy)-1H-imidazo[4,5-b]pyridin-2-amine] here?
A: < 10 nM

Q: For `COC1CCN(Cc2cc(Nc3nc4ncc(Oc5cnn6ccncc56)c(Cl)c4n3C)cc(C(F)(F)F)c2)CC1` [Example I-198, 7-chloro-N-(3-((4-methoxypiperidin-1-yl)methyl)-5-(trifluoromethyl)phenyl)-1-methyl-6-(pyrazolo[1,5-a]pyrazin-3-yloxy)-1H-imidazo[4,5-b]pyridin-2-amine], which Kd is on record?
A: < 10 nM

Q: How did the Kd turn out when `Cn1c(Nc2cc(C3CC3)cn([C@H]3CC[C@@H]3O)c2=O)nc2ncc(Oc3cnn4ccccc34)c(Cl)c21` (single isomer, unassigned) [Example I-99-a] was run?
A: < 10 nM

Q: With `Cn1cc(C(F)(F)F)cc(Nc2nc3ncc(Oc4cnn5ccnc(O[C@@H]6CC[C@H]6O)c45)c(Cl)c3n2C)c1=O` (single isomer, unassigned) [Example I-139-a] as the molecule, how does the Kd read?
A: < 10 nM

— patent US12043632B2, “6-heteroaryloxy benzimidazoles and azabenzimidazoles as JAK2 inhibitors” (Ajax Therapeutics, Inc., priority 2020, dated 2024)
